From patent US20100035822A1, “PROLINE-RICH PEPTIDES, PHARMACEUTICAL COMPOSITION, USE OF ONE OR MORE PEPTIDES AND METHOD OF TREATMENT” (priority 2006, published 2010)

Key:
[1] = target: T1, argininosuccinate synthase (AsS) (Mus musculus, UniProt P16460); assay: Potentiation of argininosuccinate synthase activity (phosphate generated from ATP); assay type: biochemical
T1 construct: Cytosolic and membrane fractions of the renal extract (100 mg/ml total protein) were applied to separate columns; from tissue; host or cells: Balb-c mouse kidney, cytosolic and membrane fractions
T1 sequence (P16460 1-412): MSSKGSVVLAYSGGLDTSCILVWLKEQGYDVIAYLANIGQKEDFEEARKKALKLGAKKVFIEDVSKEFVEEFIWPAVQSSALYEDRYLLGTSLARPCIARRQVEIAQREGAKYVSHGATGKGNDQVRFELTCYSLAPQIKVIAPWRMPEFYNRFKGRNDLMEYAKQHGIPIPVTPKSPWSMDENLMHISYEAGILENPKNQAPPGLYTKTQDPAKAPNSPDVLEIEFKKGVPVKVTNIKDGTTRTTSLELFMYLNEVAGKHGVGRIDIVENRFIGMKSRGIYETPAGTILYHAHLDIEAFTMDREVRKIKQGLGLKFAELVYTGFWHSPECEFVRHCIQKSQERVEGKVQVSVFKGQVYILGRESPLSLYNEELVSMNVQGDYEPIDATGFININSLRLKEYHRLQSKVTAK
Description: Activation of the AsS enzyme of Example 3 by peptide SEQ ID NO 8 was quantified in vitro according to Hao et al. [Hao G., Xie L., Gross S. S. Argininosuccinate synthetase is reversibly inactivated by S-nitrosylation in vitro and in vivo. J. Biol. Chem., 279:36192-36200 (2004)]. This method is based on measuring the quantity of phosphate generated from ATP, when pyrophosphatase is added to the reaction medium. Since the activity of the pyrophosphatase relates directly to the enzymatic activity of the AsS, the quantity of generated pyrophosphate is a direct measurement of the AsS activity.
The AsS enzyme (1 μg) was added to the reaction mixture containing 20 mM Tris-HCl, pH 7.8, 2 mM ATP, 2 mM citrulline, 2 mM aspartate, 6 mM MgCl2, 20 mM KCl, and 0.2 units of pyrophosphatase in a final volume of 200 μL in 96 well microplates. Increasing quantities of the SEQ ID NO 8 peptide (0.5, 1 to 8 μM) were added, and samples were incubated at 37° C. for 60 minutes. The reaction was interrupted by the addition of 200 μL of ammonium molybdate buffer (10 mM ascorbic acid, 2.5 mM ammonium molybdate, 2% sulphuric acid). Resulting phosphate was determined in the samples by spectrophotometry (absorbance at 650 nm), using a standard curve obtained with inorganic phosphate.
The production rate of phosphate (enzymatic activity of the AsS) was activated up to approximately 2.5 fold upon addition of 2 μM peptide SEQ ID NO 8. […] Accessibility of endothelial and inducible nitric oxide synthase to the intracellular citrulline-arginine regeneration pathway. Biochem. Pharmacol. 69: 97-104, 2005].

[2] = system: HUVEC cells (human umbilical vessel endothelial cells); assay: NO (nitrite) production in HUVEC cells; assay type: cell-based; conditions: 24 hours incubation
Description: HUVEC cells (human umbilical vessel endothelial cells) were obtained from umbilical vessels, a gift from the University Hospital of the University of São Paulo. Vessels were washed externally with ethanol 96%, and after a diagonal cut at the end of the vessel, a catheter was introduced into the vessel vein, and attached to a three way valve. The vein was washed with 20 ml sterile saline, and the other end of the vessel was tied. One milliliter of a collagenase type IV solution was introduced (0.2 mg/ml/cm of umbilical vessel). The vessel was transferred to a Petri dish (10 cm^2), and incubated for 15 minutes at 37° C. Cells contained inside the cord were removed by massage, and transferred to a sterile tube. Bovine fetal serum was added to a final concentration of 10%, and the suspension was centrifuged for 10 minutes at 3.000 g at 4° C., and the cell pellet was resuspended in 2 ml complete medium (40% Medium 199, 40% DMEM, 18% bovine fetal serum, 1% L-glutamine, 1% penicillin/streptomycin). The cell suspension was transferred to a bottle, previously treated with a 1% gelatin solution (30 min at 4° C.), and 5 mL complete medium was added. The bottle was incubated at 37° C. at 5% CO2 atmosphere. […]
Cells were grown in Petri dishes to 80% confluence. […] The concentration of nitrite, derived from NO, was measured in the extracellular and the intracellular media.

<ENWPHPQIPP [SEQ ID NO 8] was tested, and the “activation of the production rate of phosphate (enzymatic activity of the AsS)” value ([1]; 2 μM peptide, AsS 1-8 μg) was “approximately 2.5 fold”, the “activation of AsS” value ([1]; maximum activation) was 70-80% and the “increase of NO generation” value [2] was “approximately 100%”.
